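Results reflect a 48-hour exposure of cells in 96-well plates to compound at five concentrations. The concentration for full growth arrest is given as TGI.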
Columns and labels:
Test in all cases: NCI tumour cell line growth inhibition, 48 h
[1] = tested on: PC-3 prostate
[2] = tested on: ACHN renal
[3] = tested on: SNB-19 CNS
[4] = tested on: SNB-75 CNS
[5] = tested on: SK-MEL-5 melanoma
[6] = tested on: OVCAR-3 ovarian
[7] = tested on: SK-OV-3 ovarian
[8] = tested on: UACC-257 melanoma
[9] = tested on: RXF 393 renal
[10] = tested on: BT-549 breast
[11] = tested on: HCT-15 colon
[12] = tested on: RPMI-8226 leukemia
[13] = tested on: KM12 colon
[14] = tested on: MCF7 breast
[15] = tested on: EKVX NSCLC
[16] = tested on: NCI-H226 lung
[17] = tested on: MOLT-4 leukemia
[18] = tested on: SK-MEL-28 melanoma
[19] = tested on: HS 578T breast
[20] = tested on: 786-0 renal
[21] = tested on: IGROV1 ovarian
[22] = tested on: MDA-MB-435
[23] = tested on: SR leukemia
[24] = tested on: SF-539 CNS
[25] = tested on: OVCAR-8 ovarian
[26] = tested on: SF-268 CNS
[27] = tested on: CCRF-CEM leukemia
[28] = tested on: HT29 colon
[29] = tested on: HOP-62 NSCLC
[30] = tested on: T-47D breast
[31] = tested on: COLO 205 colon
[32] = tested on: MDA-N
[33] = tested on: U251 CNS
[34] = tested on: OVCAR-5 ovarian
[35] = tested on: A549 NSCLC
[36] = tested on: SN12C renal
[37] = tested on: UO-31 renal
[38] = tested on: HCT-116 colon
[39] = tested on: HL-60(TB) leukemia
[40] = tested on: MALME-3M melanoma
[41] = tested on: UACC-62 melanoma
[42] = tested on: NCI/ADR-RES ovarian
[43] = tested on: SF-295 CNS
[44] = tested on: NCI-H23 lung
[45] = tested on: CAKI-1 renal
[46] = tested on: OVCAR-4 ovarian
[47] = tested on: TK-10 renal
[48] = tested on: SW-620 colon
[49] = tested on: MDA-MB-231 breast
[50] = tested on: HCC-2998 colon
[51] = tested on: DU-145 prostate
[52] = tested on: LOX IMVI melanoma
[53] = tested on: NCI-H522 lung
[54] = tested on: M14 melanoma
[55] = tested on: SK-MEL-2 melanoma
[56] = tested on: HOP-92 NSCLC
[57] = tested on: K-562 leukemia
[58] = tested on: NCI-H460 lung

CC1(c2nc3cc(Cl)c(Cl)cc3[nH]2)CCC(C(=O)O)C(C)(C)O1 (stereo not given) was tested, and the TGI [1] was greater than 100 µM, the TGI [2] was greater than 100 µM and the TGI [3] was greater than 100 µM. It also gave a TGI [4] greater than 100 µM, a TGI [5] greater than 100 µM and a TGI [6] greater than 100 µM. For the same molecule, the TGI [7] was greater than 100 µM, the TGI [8] was greater than 100 µM and the TGI [9] was greater than 100 µM. The TGI [10] was greater than 100 µM, the TGI [11] was greater than 100 µM and the TGI [12] was greater than 100 µM. For the same molecule, the TGI [13] was greater than 100 µM, the TGI [14] was greater than 100 µM and the TGI [15] was greater than 100 µM. For the same molecule, the TGI [16] was greater than 100 µM, the TGI [17] was greater than 100 µM and the TGI [18] was greater than 100 µM. The TGI [19] was greater than 100 µM, the TGI [20] was greater than 100 µM and the TGI [21] was greater than 100 µM. It also gave a TGI [22] greater than 100 µM, a TGI [23] greater than 100 µM and a TGI [24] greater than 100 µM. It also gave a TGI [25] greater than 100 µM, a TGI [26] greater than 100 µM and a TGI [27] greater than 100 µM. The TGI [28] was greater than 100 µM, the TGI [29] was greater than 100 µM and the TGI [30] was greater than 100 µM. For the same molecule, the TGI [31] was greater than 100 µM, the TGI [32] was greater than 100 µM and the TGI [33] was greater than 100 µM. It also gave a TGI [34] greater than 100 µM, a TGI [35] greater than 100 µM and a TGI [36] greater than 100 µM. The TGI [37] was greater than 100 µM, the TGI [38] was greater than 100 µM and the TGI [39] was greater than 100 µM. The TGI [40] was greater than 100 µM, the TGI [41] was greater than 100 µM and the TGI [42] was greater than 100 µM. The TGI [43] was greater than 100 µM, the TGI [44] was greater than 100 µM and the TGI [45] was greater than 100 µM. The TGI [46] was greater than 100 µM, the TGI [47] was greater than 100 µM and the TGI [48] was greater than 100 µM. The TGI [49] was greater than 100 µM, the TGI [50] was greater than 100 µM and the TGI [51] was greater than 100 µM. It also gave a TGI [52] greater than 100 µM, a TGI [53] greater than 100 µM and a TGI [54] greater than 100 µM. For the same molecule, the TGI [55] was greater than 100 µM, the TGI [56] was greater than 100 µM and the TGI [57] was greater than 100 µM.

Molecule CC(=O)OCC1OC(OC2CC3C(C)(C)C(=O)CC[C@]3(C)C3CC[C@]45C[C@]4(CCC5[C@@H](C)CC(O)C(O)C(C)(C)O)[C@]23C)C(O)C(O)C1O (stereo not given in full) has a TGI [1] of 21.5 µM, a TGI [2] of 30 µM and a TGI [3] of 23.3 µM. For the same molecule, the TGI [4] was 18.8 µM, the TGI [5] was 20.3 µM and the TGI [6] was 25.4 µM. For the same molecule, the TGI [7] was 28.9 µM, the TGI [8] was 23.6 µM and the TGI [9] was 21.9 µM. The TGI [10] was 25.9 µM, the TGI [11] was 31.4 µM and the TGI [12] was 17.2 µM. It also gave a TGI [13] of 19.1 µM, a TGI [14] of 16.7 µM and a TGI [15] of 29.9 µM. For the same molecule, the TGI [16] was 30.6 µM, the TGI [17] was 15.6 µM and the TGI [18] was 12.6 µM. The TGI [19] was 24.5 µM, the TGI [20] was 26.5 µM and the TGI [21] was 23.2 µM. The TGI [22] was 21.2 µM, the TGI [23] was 16.9 µM and the TGI [24] was 28.8 µM. It also gave a TGI [25] of 26.5 µM, a TGI [26] of 21.8 µM and a TGI [27] of 16.7 µM. The TGI [28] was 16.7 µM, the TGI [29] was 33.8 µM and the TGI [30] was 18.8 µM. The TGI [31] was 18.5 µM, the TGI [32] was 22.7 µM and the TGI [33] was 20.3 µM. The TGI [34] was 30.8 µM, the TGI [35] was 31.6 µM and the TGI [36] was 26.4 µM. The TGI [37] was 32.2 µM, the TGI [38] was 20 µM and the TGI [39] was 5.05 µM. It also gave a TGI [40] of 27.5 µM, a TGI [41] of 22.5 µM and a TGI [42] of 32.8 µM. The TGI [43] was 27.1 µM, the TGI [44] was 32.7 µM and the TGI [45] was 31.1 µM. It also gave a TGI [46] of 25.7 µM, a TGI [58] of 27.1 µM and a TGI [47] of 28.1 µM. The TGI [48] was 26 µM, the TGI [49] was 19.5 µM and the TGI [50] was 21.7 µM. The TGI [51] was 30.9 µM, the TGI [52] was 12.6 µM and the TGI [53] was 22.7 µM. The TGI [54] was 22.2 µM, the TGI [55] was 17.1 µM and the TGI [56] was 13.7 µM. For the same molecule, the TGI [57] was 21.7 µM.

— PubChem BioAssay (NCI)
